Measurements reported in article PMC5007552, “The hVps34‐SGK3 pathway alleviates sustained PI3K/Akt inhibition by stimulating mTORC1 and tumour growth” (The EMBO Journal, 2016).
Where “and” joins values, the source holds several entries; their conditions need not be identical. Identical values can stand only once.

System: ZR-75-1 cells
Assay: NanoString human kinome mRNA quantification
Format: cell-based
Source text: Human mRNAs were hybridised to NanoString human kinome and control code sets, then subjected to quantification using NanoString software. […] To permit data compaction, and simple kinome‐wide comparisons, the fold changes are log2 transformed. […] Cell pellets were resuspended at a concentration of ~6,500 cells/μl in RLT buffer (Qiagen). […] For total copy numbers, triplicate normalised count values were averaged, and to calculate fold induction, means were divided by triplicate mean values from matched DMSO controls. P‐values were calculated using unpaired t‐test (GraphPad Prism software) by employing treated and control count data for each kinase mRNA.

## NC1(c2ccc(-c3nc4ccn5c(=O)[nH]nc5c4cc3-c3ccccc3)cc2)CCC1 [MK-2206]
MAST2 mRNA, replicates 1-3
  MAST2 Normalised counts (single replicates): 738.65 and 699.23 and 725.5
MAST3 mRNA, replicates 1-3
  MAST3 Normalised counts (single replicates): 218.81
MAST4 mRNA, average of 3
  MAST4 Normalised counts Average: 166.143
MAST4 mRNA, replicates 1-3
  MAST4 Normalised counts (single replicates): 166 and 165.82 and 166.61
MASTL mRNA, average of 3
  MASTL Normalised counts Average: 679.5
MASTL mRNA, replicates 1-3
  MASTL Normalised counts (single replicates): 701.38 and 631.47 and 705.65
MATK mRNA, replicates 1-3
  MATK Normalised counts (single replicates): 210.28
MERTK mRNA, average of 3
  MERTK Normalised counts Average: 1
MERTK mRNA, replicates 1-3
  MERTK Normalised counts (single replicates): 1
MET mRNA, average of 3
  MET Normalised counts Average: 45.06
MET mRNA, replicates 1-3
  MET Normalised counts (single replicates): 44.2 and 35.51 and 55.47
MINK1 mRNA, average of 3
  MINK1 Normalised counts Average: 1315.77
MINK1 mRNA, replicates 1-3
  MINK1 Normalised counts (single replicates): 1338.56 and 1283.89 and 1324.87
MKNK1 mRNA
  Average normalised counts: 747.723
MKNK2 mRNA
  Average normalised counts: 1542.12
MLKL mRNA
  Average normalised counts: 206.987
MOK mRNA
  Average normalised counts: 276.793
MOS mRNA
  Average normalised counts: 1.463
MST1R mRNA
  Average normalised counts: 587.597
MST4 mRNA
  Average normalised counts: 1197.2
MTOR mRNA
  Average normalised counts: 1169.76
MUSK mRNA
  Average normalised counts: 1
MYLK2 mRNA
  Average normalised counts: 3.573
MYLK3 mRNA
  Average normalised counts: 4.65
MYLK4 mRNA
  Average normalised counts: 3.183
MYLK mRNA
  Average normalised counts: 35.0933
MYO3B mRNA
  Average normalised counts: 1.693
NEK1 mRNA
  Average normalised counts: 126.33
NEK2 mRNA
  Average normalised counts: 1658.91
NEK3 mRNA
  Average normalised counts: 279.833
NEK5 mRNA
  Average normalised counts: 63.3867
NEK6 mRNA
  Average normalised counts: 316.677
NEK7 mRNA
  Average normalised counts: 1505.67
NEK8 mRNA
  Average normalised counts: 178.517
NEK9 mRNA
  Average normalised counts: 368.757
NEK10 mRNA
  Average normalised counts: 2.217
NIM1 mRNA
  Average normalised counts: 1.163
NLK mRNA
  Average normalised counts: 173.16
NPR1 mRNA
  Average normalised counts: 1
NPR2 mRNA
  Average normalised counts: 1
NRBP1 mRNA
  Average normalised counts: 1653.03
NRBP2 mRNA
  Average normalised counts: 1124.63
NRK mRNA
  Average normalised counts: 29.1233
NTRK1 mRNA
  Average normalised counts: 2.95
NTRK2 mRNA
  Average normalised counts: 77.2267
NTRK3 mRNA
  Average normalised counts: 11.2267
NUAK1 mRNA
  Average normalised counts: 101.57
NUAK2 mRNA
  Average normalised counts: 96.2433
OBSCN mRNA
  Average normalised counts: 96.8
OXSR1 mRNA
  Average normalised counts: 220.06
PAK1 mRNA
  Average normalised counts: 710.853
PAK2 mRNA
  Average normalised counts: 2547.5
PAK3 mRNA
  Average normalised counts: 3.48
PAK4 mRNA
  Average normalised counts: 1206.53
PAK6 mRNA
  Average normalised counts: 64.56
PAK7 mRNA
  Average normalised counts: 2.957
PAN3 mRNA
  Average normalised counts: 788.86
ROCK2 mRNA, average of 3 replicates
  ROCK2 normalised counts, average: 1654.49
ROCK2 mRNA, single replicates
  ROCK2 normalised counts: 1580.35 and 1693.07 and 1690.04
ROR1 mRNA, average of 3 replicates
  ROR1 normalised counts, average: 3.17
ROR1 mRNA, single replicates
  ROR1 normalised counts: 1.48 and 3.37 and 4.66
ROR2 mRNA, average of 3 replicates
  ROR2 normalised counts, average: 177.843
ROR2 mRNA, single replicates
  ROR2 normalised counts: 183.27 and 188.41 and 161.85
ROS1 mRNA, average of 3 replicates
  ROS1 normalised counts, average: 1
ROS1 mRNA, single replicates
  ROS1 normalised counts: 1
RPS6KA1 mRNA, average of 3 replicates
  RPS6KA1 normalised counts, average: 743.577
RPS6KA1 mRNA, single replicates
  RPS6KA1 normalised counts: 752.28 and 733.11 and 745.34
RPS6KA2 mRNA, average of 3 replicates
  RPS6KA2 normalised counts, average: 42.18
RPS6KA2 mRNA, single replicates
  RPS6KA2 normalised counts: 39.65 and 43.33 and 43.56
RPS6KA3 mRNA, average of 3 replicates
  RPS6KA3 normalised counts, average: 81.17
RPS6KA3 mRNA, single replicates
  RPS6KA3 normalised counts: 77.83 and 82.42 and 83.26
RPS6KA4 mRNA, average of 3 replicates
  RPS6KA4 normalised counts, average: 830.71
RPS6KA4 mRNA, single replicates
  RPS6KA4 normalised counts: 858.63 and 809.56 and 823.94
RPS6KA5 mRNA, average of 3 replicates
  RPS6KA5 normalised counts, average: 131.06
RPS6KA5 mRNA, single replicates
  RPS6KA5 normalised counts: 126.01 and 136.28 and 130.89
RPS6KA6 mRNA, average of 3 replicates
  RPS6KA6 normalised counts, average: 136.14
RPS6KA6 mRNA, single replicates
  RPS6KA6 normalised counts: 127.82 and 135.42 and 145.18
RPS6KB1 mRNA, average of 3 replicates
  RPS6KB1 normalised counts, average: 1559.99
RPS6KB1 mRNA, single replicates
  RPS6KB1 normalised counts: 1574.89 and 1571.44 and 1533.65
RPS6KB2 mRNA, average of 3 replicates
  RPS6KB2 normalised counts, average: 3538.09
RPS6KB2 mRNA, single replicates
  RPS6KB2 normalised counts: 3546.44 and 3576.5 and 3491.33
RPS6KC1 mRNA, average of 3 replicates
  RPS6KC1 normalised counts, average: 1368.65
RPS6KC1 mRNA, single replicates
  RPS6KC1 normalised counts: 1361.29 and 1349.92 and 1394.73
RPS6KL1 mRNA, average of 3 replicates
  RPS6KL1 normalised counts, average: 85.8967
RPS6KL1 mRNA, single replicates
  RPS6KL1 normalised counts: 86.01 and 87.63 and 84.05
RYK mRNA, average of 3 replicates
  RYK normalised counts, average: 1136.11
